Peptide text beside a SMILES is read from it.

Data set [1] concerns primary human macrophages. The data set is described as follows: Toxicity of peptides against macrophages (PrestoBlue). The following applies: three independent experiments. Type of data set: cell-based. How it is done: Human peripheral blood mononuclear cells (PBMC) were isolated by density gradient centrifugation (Ficoll-Paque™ Plus; GE Healthcare) of buffy coat preparations from anonymous donors (Institute of Transfusion Medicine, Ulm University). Monocytes were isolated from PBMCs by adherence on tissue culture treated plastic flasks (Falcon, Corning, NY, United States). Monocyte-derived macrophages were generated by incubation with granulocyte-macrophage colony-stimulating factor (10 ng/ml; Miltenyi Biotec, Bergisch Gladbach, Germany) in Macrophage-Serum Free Medium (M-SFM; Gibco, ThermoFisher Scientific, Schwerte, Germany) for 6 days.
About 1 × 10^5 macrophages were incubated with peptides for 18 h in a 96-well plate, followed by addition of 10% PrestoBlue™ (Thermo Fisher) for 20 min. The non-fluorescent resazurin-based PrestoBlue is reduced to fluorescent resorufin by mitochondrial enzymes of viable cells ([Xu et al., 2015]). The fluorescence intensity (FI) was measured at λex 560 nm and λem 600 nm using Infinite 200 PRO (Tecan, Männedorf, Suisse) plate reader. Cell viability (%) was calculated using the following formula where the ratio of the FIs of the sample and the untreated control is calculated after subtracting the background FI introduced by the same volume of cell culture medium: [FI (sample)-FI (background)]/[FI (untreated control)-FI (background)] × 100.

Data set [2] in a line: Half-life of Angie1 in human serum. Type of data set: in vitro ADME. The following applies: human serum (Lonza 14-490E) spiked with 10 μM, 37°C, aliquots 5–120 min, LC-MS (Orbitrap Elite) signal area, triplicates, GraphPad Prism. As to the method:
Human serum (14-490E, Lonza, Basel, Switzerland) was spiked with 10 μM Angie1 and incubated at 37°C for 2 h in triplicates. After 5, 10, 20, 30, 45, 60, 90, and 120 min; aliquots (5 μl) were diluted with 1.5 ml ice cold TFA (0.1%). Around 15 μl of each sample was analyzed using an Orbitrap Elite system (Thermo Fisher Scientific) as described above. XCalibur Qual Browser (Thermo Fisher Scientific) was used for visualization of the total ion chromatograms and spectra, as well as for signal area calculation. The theoretical spectrum of Angie1 and its degradation products were generated and the highest intensity signals were used as reference for detecting Angie1 and its degradation products. Plot graphs (signal area vs. time) and half-lives were calculated with GraphPad Prism 8.0 (GraphPad, La Jolla, CA, United States).

The next data set concerns zebrafish embryos. The data set is described as follows: Toxicity against zebrafish embryos. It is filed as in vivo. The following applies: 1, 10, and 100 μM, exposure 24 h from 24 hpf, scored at 48 hpf, n = 60 embryos each group. As to the method: Wild-type zebrafish embryos were dechorionated at 24 h post fertilization (hpf) using digestion with 1 mg/ml pronase (Sigma) in E3 medium (83 μM NaCl, 2.8 μM KCl, 5.5 μM CaCl2, and 5.5 μM MgSO4). Embryos were exposed for 24 h, in groups of three, to 100 μl of E3 medium containing Angie1 at 1, 10, and 100 μM. Each concentration was tested in two independent assays, each of which was performed on 10 × 3 embryos. The peptide solvent (PBS), diluted in E3, was used as negative control at the same amount as introduced by the highest peptide concentration. As positive control for acute toxicity/cytotoxicity the pleurocidin antimicrobial peptide NRC-03 ([…]-[…]-NH2) was used at a concentration of 6 μM as described ([Morash et al., 2011]). Abamectin at a concentration of 3.125 μM was used as positive control for neurotoxicity ([Raftery et al., 2014]). At 48 hpf (after 24 h of incubation) embryos were scored in a stereomicroscope for signs of acute toxicity/cytotoxicity (lysis and/or necrosis), developmental toxicity (delay and/or malformations), or cardiotoxicity (heart edema and/or reduced or absent circulation). Each embryo was also touched with a needle and reduced or absent touch response (escape movements) was evaluated as signs of neurotoxicity if and only if no signs of acute toxicity were present in the same embryo. […]

The next data set concerns human macrophages. The data set is described as follows: Uptake by macrophages (flow cytometry, confocal laser microscopy). It is filed as cell-based. The following applies: Atto647N-labeled peptide, 54 μM, 18 h, alone or incorporated into liposomes; flow cytometry and confocal microscopy, three donors. As to the method:
For investigation of Angie1 internalization, 1 × 10^6 macrophages were incubated with Angie1-Atto647N or Angie1-Atto647N Lip for 18 h. Samples were then analyzed using a FACS Calibur (BD Biosciences) with FlowJo v10.4.1 (BD). For confocal laser microscopy, 0.1 × 10^6 macrophages were seeded in 200 μl M-SFM in an eight-chamber slide (Thermo Fisher) and incubated with Angie1-Atto 647 N (54 μM) or Angie1-Atto 647 N Lip (54 μM) or Angiogenin-Atto647N Lip. After overnight incubation, cells were fixed (4% PFA, Sigma-Aldrich), followed by blocking in 2% BSA. Subsequently macrophages were labeled with major histocompatibility antigen class II antibodies (HLA-DR; 1:200, clone L243, Leinco, St. Louis, MS, United States) detected by Cy2-conjugated goat anti-mouse antibodies (1:200, Dianova, Hamburg, Germany). Cell nuclei were stained with DAPI (1:200, Sigma-Aldrich) diluted in 1% BSA and 0.1% Triton X-100 in PBS (all Sigma-Aldrich). Images were acquired using the inverted laser scanning confocal microscope LSM 710 (Zeiss, Oberkochen, Germany). Image processing was performed using ImageJ software (v 1.52c).
(In general: In flow cytometry, cells or beads pass a laser one at a time.)

Another data set is described as follows: Solubility in water. It is filed as physicochemical.
Data set [3] deals with Mycobacterium tuberculosis H37Rv (extracellular Mtb). Type of data set: cell-based. The following applies: 100 μM peptide; 2 × 10^6 Mtb, 96 h incubation, 3H-Uracil uptake vs untreated control; mean ± SD, triplicates of three independent experiments.
Data set [4] deals with intracellular Mtb in primary human macrophages. It is filed as cell-based, Mycobacterium tuberculosis. The following applies: 10 μM, 4 days, MOI 5, CFU on 7H11 after 21 days; diluent control 9.5-fold; p < 0.05; six donors.
The subject of data set [5] is primary human monocytes or macrophages. The data set is described as follows: Chemotaxis or cytokine release by monocytes or macrophages (not shown). The following applies: data not shown. It is filed as cell-based.

Usually half-life stands for the time needed for the level to fall by half in the phase considered. Higher therefore signals slow loss. Consider `CC[C@H](C)[C@H](NC(=O)[C@H](C)NC(=O)[C@H](CCCCN)NC(=O)[C@@H](NC(=O)[C@H](CO)NC(=O)[C@@H](NC(=O)[C@H](CCCCN)NC(=O)[C@H](CC(N)=O)NC(=O)CNC(=O)[C@H](Cc1c[nH]cn1)NC(=O)[C@@H](NC(=O)[C@H](Cc1ccccc1)NC(=O)[C@@H](NC(=O)[C@H](CC(N)=O)NC(=O)[C@@H](NC(=O)[C@H](C)NC(=O)[C@@H](N)CCCCN)[C@@H](C)CC)[C@@H](C)O)[C@@H](C)CC)[C@@H](C)CC)[C@@H](C)CC)C(=O)O` [Angie1] (H-KAINTFIHGNKISIKAI-OH), for which the “Toxicity for primary human macrophages” value in data set [1] (Angie1 at 27, 54, or 108 μM, PrestoBlue, 24 h) was “not toxic”. In data set [2], the “Half-life in human serum” value came out at 3 min and the half-life at 10 μM is 3.06 min. In the data set with zebrafish embryos, the “Toxicity to zebrafish embryos (acute/cyto-, cardio-, developmental, neurotoxicity)” value was “no toxicity”. For the same compound, the Uptake by macrophages entry in the data set with human macrophages was “equally efficient”. Further, in the data set “Solubility in water”, the Solubility in water entry is on record as “soluble in water”.

As to “Angiogenin: endogenous 123 amino acid, 14.1 kDa protein identified in hemofiltrate; tested as synthetic Angiogenin”, in data set [3], the “Antimicrobial activity against extracellular Mtb” value was 94 ± 2%. In addition, in data set [1] (Angiogenin 10 μM, 18 h (legend: 24 h), PrestoBlue resazurin metabolism), the Viability of macrophages entry is given as “did not affect the viability”. Also, in data set [4], the “Multiplication of intracellular Mtb (n-fold growth d4 vs d0)” value worked out at 5.2 fold. In data set [5], the “Induction of chemotaxis or cytokine release” value is listed as “do not induce chemotaxis or cytokine release”.

For the origin of these results see article PMC7848861 (Frontiers in Microbiology, 2021).
